Measured values from ChEMBL document CHEMBL3865816, “Design, synthesis and biological evaluation of novel azaspiro analogs of linezolid as antibacterial and antitubercular agents” (Eur J Med Chem, 2016).
Converted amounts (≈) assume the structure as drawn.

How the values were obtained:
Format in all cases: functional
Pseudomonas aeruginosa [1] = test: Antibacterial activity against Pseudomonas aeruginosa NCIM 2036 measured after 8 hrs by spectrophotometric method; conditions: NCIM 2036, 8 h
Staphylococcus aureus [2] = test: Antibacterial activity against Staphylococcus aureus NCIM 2079 measured after 12 hrs by spectrophotometric method; conditions: NCIM 2079, 12 h
Escherichia coli [3] = test: Antibacterial activity against Escherichia coli NCIM 2688 measured after 8 hrs by spectrophotometric method; conditions: NCIM 2688, 8 h
Bacillus subtilis [4] = test: Antibacterial activity against Bacillus subtilis NCIM 2010 measured after 12 hrs by spectrophotometric method; conditions: NCIM 2010, 12 h
[5] = test system: Mycobacterium tuberculosis; test: Antitubercular activity against dormant stage Mycobacterium tuberculosis H37Ra measured after 12 days by XTT assay; conditions: 288 h
Escherichia coli [6] = test: Antibacterial activity against Escherichia coli NCIM 2688 at 30 ug/ml measured after 8 hrs by spectrophotometric method; conditions: NCIM 2688, 8 h
Escherichia coli [7] = test: Antibacterial activity against Escherichia coli NCIM 2688 at 10 ug/ml measured after 8 hrs by spectrophotometric method; conditions: NCIM 2688, 8 h
Escherichia coli [8] = test: Antibacterial activity against Escherichia coli NCIM 2688 at 3 ug/ml measured after 8 hrs by spectrophotometric method; conditions: NCIM 2688, 8 h
Pseudomonas aeruginosa [9] = test: Antibacterial activity against Pseudomonas aeruginosa NCIM 2036 at 30 ug/ml measured after 8 hrs by spectrophotometric method; conditions: NCIM 2036, 8 h
Pseudomonas aeruginosa [10] = test: Antibacterial activity against Pseudomonas aeruginosa NCIM 2036 at 10 ug/ml measured after 8 hrs by spectrophotometric method; conditions: NCIM 2036, 8 h
Pseudomonas aeruginosa [11] = test: Antibacterial activity against Pseudomonas aeruginosa NCIM 2036 at 3 ug/ml measured after 8 hrs by spectrophotometric method; conditions: NCIM 2036, 8 h
Staphylococcus aureus [12] = test: Antibacterial activity against Staphylococcus aureus NCIM 2079 at 30 ug/ml measured after 12 hrs by spectrophotometric method; conditions: NCIM 2079, 12 h
Staphylococcus aureus [13] = test: Antibacterial activity against Staphylococcus aureus NCIM 2079 at 10 ug/ml measured after 12 hrs by spectrophotometric method; conditions: NCIM 2079, 12 h
Staphylococcus aureus [14] = test: Antibacterial activity against Staphylococcus aureus NCIM 2079 at 3 ug/ml measured after 12 hrs by spectrophotometric method; conditions: NCIM 2079, 12 h
Bacillus subtilis [15] = test: Antibacterial activity against Bacillus subtilis NCIM 2010 at 30 ug/ml measured after 12 hrs by spectrophotometric method; conditions: NCIM 2010, 12 h
Bacillus subtilis [16] = test: Antibacterial activity against Bacillus subtilis NCIM 2010 at 10 ug/ml measured after 12 hrs by spectrophotometric method; conditions: NCIM 2010, 12 h
Bacillus subtilis [17] = test: Antibacterial activity against Bacillus subtilis NCIM 2010 at 3 ug/ml measured after 12 hrs by spectrophotometric method; conditions: NCIM 2010, 12 h
[18] = test system: Mycobacterium tuberculosis; test: Antitubercular activity against dormant stage Mycobacterium tuberculosis H37Ra at 30 ug/ml measured after 12 days by XTT assay; conditions: 288 h
[19] = test system: Mycobacterium tuberculosis; test: Antitubercular activity against dormant stage Mycobacterium tuberculosis H37Ra at 10 ug/ml measured after 12 days by XTT assay; conditions: 288 h
[20] = test system: Mycobacterium tuberculosis; test: Antitubercular activity against dormant stage Mycobacterium tuberculosis H37Ra at 3 ug/ml measured after 12 days by XTT assay; conditions: 288 h

Row | SMILES | IC50 (Pseudomonas aeruginosa [1]) [µg/mL] | MIC (Pseudomonas aeruginosa [1]) [µg/mL] | IC50 (Staphylococcus aureus [2]) [µg/mL] | MIC (Staphylococcus aureus [2]) [µg/mL] | IC50 (Escherichia coli [3]) [µg/mL] | MIC (Escherichia coli [3]) [µg/mL] | IC50 (Bacillus subtilis [4]) [µg/mL] | MIC (Bacillus subtilis [4]) [µg/mL] | IC50 [5] [µg/mL] | MIC [5] [µg/mL] | inhibition at 30 µg/mL (Escherichia coli [6]) [%] | inhibition at 10 µg/mL (Escherichia coli [7]) [%] | inhibition at 3 µg/mL (Escherichia coli [8]) [%] | inhibition at 30 µg/mL (Pseudomonas aeruginosa [9]) [%] | inhibition at 10 µg/mL (Pseudomonas aeruginosa [10]) [%] | inhibition at 3 µg/mL (Pseudomonas aeruginosa [11]) [%] | inhibition at 30 µg/mL (Staphylococcus aureus [12]) [%] | inhibition at 10 µg/mL (Staphylococcus aureus [13]) [%] | inhibition at 3 µg/mL (Staphylococcus aureus [14]) [%] | inhibition at 30 µg/mL (Bacillus subtilis [15]) [%] | further results
1 | COc1ccc(NC(=S)NC[C@H]2CN(c3ccc(N4CC5(COC5)C4)c(F)c3)C(=O)O2)cc1 | > 100 | > 100 | 0.74 to 100 (≈ 1.57 to 212 µM) | 16.1 to 100 (≈ 34.1 to 212 µM) | 1.1 (≈ 2.33 µM) | 10.7 (≈ 22.6 µM) | 1.1 (≈ 2.33 µM) | 8.78 (≈ 18.6 µM) | > 100 | > 100 | 98 | 89.4 | 82.2 | 58.5 | 30.1 | 17.7 | 98.3 | 88.7 | 81.4 | 100 | inhibition at 10 µg/mL (Bacillus subtilis [16]): 95.3%; inhibition at 3 µg/mL (Bacillus subtilis [17]): 77.9%; inhibition at 30 µg/mL [18]: 23.3%; inhibition at 10 µg/mL [19]: -3.34%; inhibition at 3 µg/mL [20]: 14.3%
2 | O=C1O[C@@H](CNC(=S)Nc2cccc(C(F)(F)F)c2)CN1c1ccc(N2CC3(COC3)C2)c(F)c1 | > 100 | > 100 | > 100 | > 100 | 0.49 (≈ 0.96 µM) | 2.41 (≈ 4.72 µM) | > 100 | > 100 | > 100 | > 100 | 96.3 | 95.8 | 93.3 | 79.6 | 67 | 45.2 | 94.5 | 79.2 | 64.1 | 97.2 | inhibition at 10 µg/mL (Bacillus subtilis [16]): 80.2%; inhibition at 3 µg/mL (Bacillus subtilis [17]): 65.9%; inhibition at 30 µg/mL [18]: 78%; inhibition at 10 µg/mL [19]: 44.5%; inhibition at 3 µg/mL [20]: 10.7%
3 | N#Cc1ccc(NC(=S)NC[C@H]2CN(c3ccc(N4CC5(COC5)C4)c(F)c3)C(=O)O2)cc1 | > 100 | > 100 | 1.03 (≈ 2.2 µM) | 11.2 (≈ 24 µM) | 1 (≈ 2.14 µM) | 9.54 (≈ 20.4 µM) | 0.86 (≈ 1.84 µM) | 3.87 (≈ 8.28 µM) | > 100 | > 100 | 95.7 | 93.2 | 78.2 | 50 | 46.6 | 22.1 | 94.3 | 91.6 | 75.6 | 98 | inhibition at 10 µg/mL (Bacillus subtilis [16]): 97.6%; inhibition at 3 µg/mL (Bacillus subtilis [17]): 81.3%; inhibition at 30 µg/mL [18]: 34.7%; inhibition at 10 µg/mL [19]: 58.1%; inhibition at 3 µg/mL [20]: 34.5%
4 | CC(C)(C)NC(=S)NC[C@H]1CN(c2ccc(N3CC4(COC4)C3)c(F)c2)C(=O)O1 | > 100 | > 100 | 1.45 (≈ 3.43 µM) | 9.15 (≈ 21.7 µM) | 1.38 (≈ 3.27 µM) | 22.8 (≈ 53.9 µM) | > 100 | > 100 | > 100 | > 100 | 100 | 84 | 75.7 | 62.7 | 37.5 | 0 | 98.9 | 90.4 | 82.1 | 97.2 | inhibition at 10 µg/mL (Bacillus subtilis [16]): 79.3%; inhibition at 3 µg/mL (Bacillus subtilis [17]): 66.3%; inhibition at 30 µg/mL [18]: -6.69%; inhibition at 10 µg/mL [19]: -3.66%; inhibition at 3 µg/mL [20]: 9.56%
5 | CC(C)NC(=S)NC[C@H]1CN(c2ccc(N3CC4(COC4)C3)c(F)c2)C(=O)O1 | 1.27 (≈ 3.11 µM) | 32.3 (≈ 79 µM) | > 100 | > 100 | > 100 | > 100 | 0.64 (≈ 1.57 µM) | 6.04 (≈ 14.8 µM) | > 100 | > 100 | 91.3 | 58.9 | 46.7 | 91.4 | 83.8 | 72.6 | 93 | 75.2 | 58.8 | 99.3 | inhibition at 10 µg/mL (Bacillus subtilis [16]): 95.1%; inhibition at 3 µg/mL (Bacillus subtilis [17]): 82%; inhibition at 30 µg/mL [18]: 48.8%; inhibition at 10 µg/mL [19]: 7.27%; inhibition at 3 µg/mL [20]: -11.7%
